Measured values taken from patent US10413557B2, “Prodrugs of 17.BETA.-HSD1-inhibitors” (FORENDO PHARMA LTD, priority 2014, dated 2019).

Key:
[1] = biological target: T1, recombinant human 17β-HSD2 (Homo sapiens, UniProt P37059); assay: Inhibition of recombinant human 17β-HSD2 (conversion of 3H-estradiol to estrone, HPLC); assay type: biochemical; settings: inhibitor 1 μM; 50 nM estradiol, 1 mM NADH, 30 min RT
T1 construct: made in house; host or cells: Sd9 (Sf9) insect cells, baculovirus (Bac to Bac Expression System)
T1 sequence (P37059 1-387): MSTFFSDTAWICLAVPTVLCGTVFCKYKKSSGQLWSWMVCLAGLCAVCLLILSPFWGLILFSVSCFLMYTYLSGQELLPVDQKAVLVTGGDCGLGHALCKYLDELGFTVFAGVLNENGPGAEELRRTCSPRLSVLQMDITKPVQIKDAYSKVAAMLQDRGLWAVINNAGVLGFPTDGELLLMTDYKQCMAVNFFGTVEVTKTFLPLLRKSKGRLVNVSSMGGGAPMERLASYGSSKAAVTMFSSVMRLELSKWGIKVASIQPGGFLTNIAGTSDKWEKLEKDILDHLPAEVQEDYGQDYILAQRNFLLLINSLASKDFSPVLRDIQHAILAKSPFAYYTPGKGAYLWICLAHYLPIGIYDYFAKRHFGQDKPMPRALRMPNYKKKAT
Description: 17β-HSD2 production and isolation: Similarly to 17β-HSD1 the Recombinant baculovirus was generated by the “Bac to Bac Expression System” (Invitrogen). Recombinant bacmid was transfected to Sd9 insect cells using “Cellfectin Reagent” (Invitrogen). 60 h later cells were harvested and supernatant were fractionated by the following protocol: • cells were dissolved into 40 ml of A-buffer (40 mM TRIS, pH8.0, 20% glycerol, 20 μM NAD, 0.4 mM PMSF, 150 mM NaCl, 0.5% dodecyl-β-maltoside+protease inhibitor cocktail) • cells were sonicated • lysate was incubated on ice for 15 min • lysate was centrifuged 5000 rpm 15 min, +4° C. • centrifugation of the supernatant 180 000 g 30 min, +4° C. • pellet was dissolved into 8 ml of A-buffer • not resuspended material was removed by centrifugation 5000 rpm 15 min, +4° C. • the clear supernatant was divided into 100 μl aliquots and were stored frozen until determination of enzymatic activity.
The amount of 17β-HSD2 was analysed by immunoblotting and total protein concentration of each extract batch was determined.
Assay—Inhibition of recombinant human 17β-HSD2: Protein homogenate (4 μg/ml) was incubated in 20 mM KH2PO4 pH 8.5 with 50 nM estradiol (including 800 000 cpm/ml of ^3H-estradiol) and 1 mM […] for 30 min at RT, in the presence of the potential inhibitor at concentrations 1 μM or 0.1 μM. Inhibitor stock solutions were prepared in DMSO. Final concentration of DMSO was adjusted to 1% in all samples. The enzyme reaction was stopped by addition of 10% trichloroacetic acid (final concentration). Samples were centrifuged in a microtiter plate at 4000 rpm for 10 min. Supernatants were applied to reverse phase HPLC on a Waters Symmetry C18 column, equipped with a Waters Sentry Guard column. Isocratic HPLC runs were performed at RT at a flow rate ofl ml/min in acetonitrile:water 48:52 as running solvent. Radioactivity was monitored in the eluate by a Packard Flow Scintillation Analyzer. Total radioactivity for estrone and estradiol were determined in each sample and percent conversion of estradiol to estrone was calculated according to the following formula:
(§1) Percent inhibition was calculated flowingly: % inhibition=100−% conversion

[2] = biological target: T2, recombinant human 17β-HSD1 (Homo sapiens, UniProt P14061); assay: Inhibition of recombinant human 17β-HSD1 (conversion of 3H-estrone to estradiol, HPLC); assay type: biochemical; settings: inhibitor 1 μM; 30 nM estrone, 1 mM NADPH, 30 min RT; read-out: 17β-HDS1 Inhibition % at 1 μM
T2 construct: made in house; host or cells: Sd9 (Sf9) insect cells, baculovirus (Bac to Bac Expression System)
T2 sequence (P14061 1-328): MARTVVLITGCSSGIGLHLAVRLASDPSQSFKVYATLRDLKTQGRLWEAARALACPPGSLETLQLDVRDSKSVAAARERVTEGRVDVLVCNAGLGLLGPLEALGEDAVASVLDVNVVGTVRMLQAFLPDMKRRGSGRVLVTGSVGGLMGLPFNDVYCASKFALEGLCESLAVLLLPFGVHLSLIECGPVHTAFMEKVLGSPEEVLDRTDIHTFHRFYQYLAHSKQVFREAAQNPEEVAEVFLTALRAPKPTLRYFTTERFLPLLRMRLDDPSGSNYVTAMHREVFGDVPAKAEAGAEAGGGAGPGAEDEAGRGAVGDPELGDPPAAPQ
Description: 17β-HSD1 production and isolation: Recombinant baculovirus was generated by the “Bac to Bac Expression System” (Invitrogen). Recombinant bacmid was transfected to Sd9 insect cells using “Cellfectin Reagent” (Invitrogen). 60 h later cells were harvested; the microsomal fraction was isolated as described by Puranen, T. J., Poutanen, M. H., Peltoketo, H. E., Vihko, P. T. and Vihko, R. K. (1994) Site-directed mutagenesis of the putative active site of human 17 β-hydroxysteroid dehydrogenase type 1. Biochem. J. 304: 289-293. Aliquots were stored frozen until determination of enzymatic activity.
Assay—Inhibition of recombinant human 17β-HSD1: Protein homogenate (0.1 μg/ml) was incubated in 20 mM KH2PO4 pH 7.4 with 30 nM estrone (including 800 000 cpm/ml of ^3H-estrone) and 1 mM NADPH for 30 min at RT, in the presence of the potential inhibitor at concentrations 1 μM or 0.1 μM. Inhibitor stock solutions were prepared in DMSO. Final concentration of DMSO was adjusted to 1% in all samples. The enzyme reaction was stopped by addition of 10% trichloroacetic acid (final concentration). Samples were centrifuged in a microtiter plate at 4000 rpm for 10 min. Supernatants were applied to reverse phase HPLC on a Waters Symmetry C18 column, equipped with a Waters Sentry Guard column. Isocratic HPLC runs were performed at RT at a flow rate of 1 ml/min in acetonitrile:water 48:52 as running solvent. Radioactivity was monitored in the eluate by a Packard Flow Scintillation Analyzer. Total radioactivity for estrone and estradiol were determined in each sample and percent conversion of estrone to estradiol was calculated according to the following formula:
as §1

SMILES | inhibition at 1 µM [1] [%] | inhibition at 1 µM [2] [%]
Cc1cnc(NC(=O)CC[C@@H]2C/C(=N\O)[C@@]3(C)CCC4c5ccc(O)c([N+](=O)[O-])c5CCC4C23)s1 (stereo partly drawn) [VIV-24, 3-{(13S,15R)-3-Hydroxy-4-nitro-17-[(E)-hydroxyimino]-13-methyl-7,8,9,11,12,13,14,15,16,17-decahydro-6H-cyclopenta[a]phenanthren-15-yl}-N-(5-methylthiazol-2-yl)propanamide] | 33 | 96
CO/N=C1\C[C@@H](CCC(=O)Nc2ncc(C)s2)C2C3CCc4c(cc(Br)c(O)c4Br)C3CC[C@]12C (stereo partly drawn) [VIV-11, 3-{(13S,15R)-2,4-Dibromo-3-hydroxy-17-[(E)-methoxyimino]-13-methyl-7,8,9,11,12,13,14,15,16,17-decahydro-6H-cyclopenta[a]phenanthren-15-yl}-N-(5-methylthiazol-2-yl)propanamide] | 3 | 78
CO/N=C1\C[C@@H](CCC(=O)Nc2ncc(C)s2)C2C3CCc4c(ccc(O)c4C#N)C3CC[C@]12C (stereo partly drawn) [VIV-20, 3-{(13S,15R)-3-hydroxy-17-[(E)-methoxyimino]-13-methyl-4-nitrile-7,8,9,11,12,13,14,15,16,17-decahydro-6H-cyclopenta[a]phenanthren-15-yl}-N-(5-methylthiazol-2-yl)propanamide] | 0 | 73
CO/N=C1\C[C@@H](CCC(=O)Nc2ncc(C)s2)C2C3CCc4c(ccc(O)c4[N+](=O)[O-])C3CC[C@]12C (stereo partly drawn) [VIV-4, 3-{(13S,15R)-3-Hydroxy-17-[(E)-methoxyimino]-13-methyl-4-nitro-7,8,9,11,12,13,14,15,16,17-decahydro-6H-cyclopenta[a]phenanthren-15-yl}-N-(5-methylthiazol-2-yl)propanamide] | 16 | 90
CO/N=C1\C[C@@H](CCC(=O)Nc2ncc(C)s2)C2C3CCc4cc(O)c(C#N)cc4C3CC[C@]12C (stereo partly drawn) [VIV-19, 3-{(13S,15R)-3-hydroxy-17-[(E)-methoxyimino]-13-methyl-2-nitrile-7,8,9,11,12,13,14,15,16,17-decahydro-6H-cyclopenta[a]phenanthren-15-yl}-N-(5-methylthiazol-2-yl)propanamide] | 2 | 93
Cc1cnc(NC(=O)CC[C@@H]2C/C(=N\O)[C@@]3(C)CCC4c5cc(Cl)c(O)c(Cl)c5CCC4C23)s1 (stereo partly drawn) [VIV-30, 3-{(13S,15R)-2,4-Dichloro-3-hydroxy-17-[(E)-hydroxyimino]-13-methyl-7,8,9,11,12,13,14,15,16,17-decahydro-6H-cyclopenta[a]phenanthren-15-yl}-N-(5-methylthiazol-2-yl)propanamide] | 23 | 87
Cc1cnc(NC(=O)CC[C@@H]2C/C(=N\O)[C@@]3(C)CCC4c5ccc(O)c(Cl)c5CCC4C23)s1 (stereo partly drawn) [VIV-29, 3-{(13S,15R)-4-Chloro-3-hydroxy-17-[(E)-hydroxyimino]-13-methyl-7,8,9,11,12,13,14,15,16,17-decahydro-6H-cyclopenta[a]phenanthren-15-yl}-N-(5-methylthiazol-2-yl)propanamide] | 21 | 98
CO/N=C1\C[C@@H](CCC(=O)Nc2ncc(C)s2)C2C3CCc4c(ccc(O)c4I)C3CC[C@]12C (stereo partly drawn) [VIV-7, 3-{(13S,15R)-3-Hydroxy-4-iodo-17-[(E)-methoxyimino]-13-methyl-7,8,9,11,12,13,14,15,16,17-decahydro-6H-cyclopenta[a]phenanthren-15-yl}-N-(5-methylthiazol-2-yl)propanamide] | 0 | 81
CO/N=C1\C[C@@H](CCC(=O)Nc2ncc(C)s2)C2C3CCc4c(ccc(O)c4Br)C3CC[C@]12C (stereo partly drawn) [VIV-10, 3-{(13S,15R)-4-Bromo-3-hydroxy-17-[(E)-methoxyimino]-13-methyl-7,8,9,11,12,13,14,15,16,17-decahydro-6H-cyclopenta[a]phenanthren-15-yl}-N-(5-methylthiazol-2-yl)propanamide] | 6 | 78
CO/N=C1\C[C@@H](CCC(=O)Nc2ncc(C)s2)C2C3CCc4c(ccc(O)c4Cl)C3CC[C@]12C (stereo partly drawn) [VIV-13, 3-{(13S,15R)-4-Chloro-3-hydroxy-17-[(E)-methoxyimino]-13-methyl-7,8,9,11,12,13,14,15,16,17-decahydro-6H-cyclopenta[a]phenanthren-15-yl}-N-(5-methylthiazol-2-yl)propanamide] | 5 | 86
Cc1cnc(NC(=O)CC[C@@H]2C/C(=N\O)[C@@]3(C)CCC4c5cc(Br)c(O)cc5CCC4C23)s1 (stereo partly drawn) [VIV-25, 3-{(13S,15R)-2-Bromo-3-hydroxy-17-[(E)-hydroxyimino]-13-methyl-7,8,9,11,12,13,14,15,16,17-decahydro-6H-cyclopenta[a]phenanthren-15-yl}-N-(5-methylthiazol-2-yl)propanamide] | 25 | 77
CO/N=C1\C[C@@H](CCC(=O)Nc2ncc(C)s2)C2C3CCc4cc(O)c([N+](=O)[O-])cc4C3CC[C@]12C (stereo partly drawn) [VIV-2, 3-{(13S,15R)-3-Hydroxy-17-[(E)-methoxyimino]-13-methyl-2-nitro-7,8,9,11,12,13,14,15,16,17-decahydro-6H-cyclopenta[a]phenanthren-15-yl}-N-(5-methylthiazol-2-yl)propanamide] | 3 | 64
Cc1cnc(NC(=O)CC[C@@H]2C/C(=N\O)[C@@]3(C)CCC4c5ccc(O)cc5CCC4C23)s1 (stereo partly drawn) [VIV-22, 3-{(13S,15R)-3-Hydroxy-17-[(E)-hydroxyimino]-13-methyl-7,8,9,11,12,13,14,15,16,17-decahydro-6H-cyclopenta[a]phenanthren-15-yl}-N-(5-methylthiazol-2-yl)propanamide] | 4 | 81
Cc1cnc(NC(=O)CC[C@@H]2C/C(=N\O)[C@@]3(C)CCC4c5ccc(O)c(Br)c5CCC4C23)s1 (stereo partly drawn) [VIV-26, 3-{(13S,15R)-4-Bromo-3-hydroxy-17-[(E)-hydroxyimino]-13-methyl-7,8,9,11,12,13,14,15,16,17-decahydro-6H-cyclopenta[a]phenanthren-15-yl}-N-(5-methylthiazol-2-yl)propanamide] | 15 | 89
